Source: PMC8949375, “Design, Green Synthesis and Tailoring of Vitamin E TPGS Augmented Niosomal Nano-Carrier of Pyrazolopyrimidines as Potential Anti-Liver and Breast Cancer Agents with Accentuated Oral Bioavailability” (Pharmaceuticals, 2022)
pIC50: −log10 of the molar value. Where two headings read alike, the source gives them in different places.

What was measured:
HepG2 cell line = test: MTT cytotoxicity assay, HepG2; format: cell-based; settings: Homo sapiens
Excerpt: (§1) The human HCC cell line, HEPG-2, was obtained from the American Type Culture Collection and used to evaluate the effects of the following drugs. MCF-7(ATCC® HTB-22TM, Manassas, VA, USA) breast cancer cells were derived from mammary gland or breast at a metastatic site. […] The human Caco-2 cell line, Caco-2, was obtained from the American Type Culture Collection and used to evaluate the effects of the following drugs. […], Manassas, VA, USA), epithelial-like lung carcinoma, was derived from lung tissue at a metastatic site. The human A549 cell line, A549, was obtained from the American Type Culture Collection and used to evaluate the effects of the following drugs. […] LLC., Burlington, VT, USA). Penicillin/streptomycin (Gibco®, Grand Island, NY, USA) was applied at 100 units/mL and 100 μg/mL, respectively. Growth inhibition was determined by classic MTT assay. In brief, HEPG2, A549, MCF-7 and Caco-2 cells were added to a cell culture MTT assay plate at a concentration of 5 × 10^3 cells/well in 1640 medium and cultured overnight. The different treatments were added on day 1 according to the calculated doses except on the control well and standard, then incubated for 24 h.

[1] = system: VEGF protein expression level in MCF-7 cell line; test: VEGF ELISA in MCF-7 cell culture supernatant; format: cell-based, human; parameters: concentration or dose not given beside the values; settings: MCF-7, ELISA, compared to control
Description: (§2) Total protein was assayed using the method described by Bradford. The VEGF ELISA Assay Kit (VEGF) and ELISA Kit, (#VGF31-[…]) were purchased from (Eagle Biosciences CO., LTD, Amherst, NH, USA). The kit is a sandwich enzyme immunoassay for the in vitro quantitative determination of VEGF concentrations in cell culture supernates, serum and plasma according to the manufacturer's instructions.

MCF-7 cell line = test: MTT cytotoxicity assay, MCF-7; format: cell-based; settings: Homo sapiens, MCF7, read-out: IC50 MCF-7 Breast Cancer
Excerpt: as §1

[2] = system: VEGFR-2 protein expression level in MCF-7 cell line; test: Human VEGF receptor-2 ELISA in MCF-7; format: cell-based; parameters: concentration or dose not given beside the values; settings: MCF-7, ELISA, compared to control
Description: (§3) Total protein was assayed using the method described by Bradford. The Human VEGF receptor-2 ELISA Kit (ab213476), (96 tests) was purchased from (abcam®, Waltham, MA, USA). The kit is a sandwich enzyme immunoassay for the in vitro quantitative measurement of human VEGFR-2 in tissue homogenates, cell lysates and other biological fluids according to the manufacturer’s instructions.

[3] = system: HepG2, MCF-7, A-549 and CaCo-2 cell lines; test: MTT cytotoxicity assay, summary over all tested cell lines; format: cell-based, human; settings: for cytotoxic effect on the four cancer cell lines: in words; for pIC50: Homo sapiens, range over compounds and cell lines, read-out: IC50 values versus all tested cell lines (collective range)
Excerpt: (§4) • HepG2 [HEPG2] (ATCC® HB-8065™, Manassas, VA, USA) epithelial hepatocellular carcinoma was derived from the liver tissue of a person (a well-differentiated hepatocellular carcinoma). The human HCC cell line, HEPG-2, was obtained from the American Type Culture Collection and used to evaluate the effects of the following drugs. MCF-7(ATCC® HTB-22™, Manassas, VA, USA) breast cancer cells were derived from mammary gland or breast at a metastatic site. The human MCF-7 cell line, MCF-7, was obtained from the American Type Culture Collection and used to evaluate the effects of the following drugs. • Caco 2 [Caco2] (ATCC® HTB 37™, Manassas, VA, USA) epithelial colorectal adenocarcinoma was derived from the colon at a metastatic site. The human Caco-2 cell line, Caco-2, was obtained from the American Type Culture Collection and used to evaluate the effects of the following drugs. A549 (ATCC® CCL-185™, Manassas, VA, USA), epithelial-like lung carcinoma, was derived from lung tissue at a metastatic site. The human A549 cell line, A549, was obtained from the American Type Culture Collection and used to evaluate the effects of the following drugs.
(§5) HEPG2, A549, MCF-7 and Caco-2 cells were maintained in a monolayer culture in a T-25 flask at 5% CO2 and 37 °C in DMEM (Lonza, Verviers, Belgium) and supplemented with 10% (v/v) FBS (Sigma-Aldrich Co. LLC., Burlington, VT, USA). Penicillin/streptomycin (Gibco®, Grand Island, NY, USA) was applied at 100 units/mL and 100 µg/mL, respectively.
(§6) Growth inhibition was determined by classic MTT assay. In brief, HEPG2, A549, MCF-7 and Caco-2 cells were added to a cell culture MTT assay plate at a concentration of 5 × 10^3 cells/well in 1640 medium and cultured overnight. The different treatments were added on day 1 according to the calculated doses except on the control well and standard, then incubated for 24 h. Measurement was achieved using a microplate reader (Model 550, Bio-Rad, Hercules, CA, USA).

A-549 cell line = test: MTT cytotoxicity assay, A-549; format: cell-based; settings: Homo sapiens, A549, read-out: IC50 A-549 Lung Carcinoma
Excerpt: as §4, §5, §6

CaCo-2 cell line = test: MTT cytotoxicity assay, CaCo-2; format: cell-based; settings: Homo sapiens, read-out: IC50 CaCo-2 Colon Cancer
Excerpt: as §4, §5, §6

[4] = system: VEGF protein expression level in HepG2 cell line; test: VEGF ELISA in HepG2 cell culture supernatant; format: cell-based, human; parameters: concentration or dose not given beside the values; settings: compared to control
Description: as §2

[5] = system: VEGFR-2 protein expression level in HepG2 cell line; test: Human VEGF receptor-2 ELISA in HepG2; format: cell-based; parameters: concentration or dose not given beside the values; settings: compared to control
Description: as §3

[6] = system: VEGF gene expression level in HepG2 cell line; test: Real-time PCR of VEGF gene expression, HepG2; format: cell-based, human; settings: HepG2, 3 days of treatment, compared to control, in words
Description: RT-PCR was applied to evaluate the VEGF gene expression level. Briefly, total RNA was extracted, and the extracted total RNA concentration was determined using a NanoDrop 2000 spectrophotometer (Thermo Fisher, Waltham, MA, USA). To determine the relative expression levels, the 2^−ΔΔCT method was used. NCBI/Primer Blast was used to define the primer sequences. The experiments were performed in quadruplicate. The primer sequences of VEGF and β-actin genes are listed below: […]

[7] = read-out: IC50 HepG2 Livercarcinoma

Row | Compound | pIC50 (HepG2 cell line; [7]) | VEGF 24 h % Inhibition [1] [%] | VEGF 72 h % Inhibition [1] [%] | pIC50 (MCF-7 cell line) | VEGFR-2 24 h % Inhibition [2] [%] | VEGFR-2 72 h % Inhibition [2] [%] | cytotoxic effect on the four cancer cell lines [3] | melting point [°C] | VEGF 24 h % Inhibition [4] [%] | VEGF 72 h % Inhibition [4] [%] | VEGFR-2 24 h % Inhibition [5] [%] | VEGFR-2 72 h % Inhibition [5] [%] | further results
1 | CNC(=O)c1cc(Oc2ccc(NC(=O)Nc3ccc(Cl)c(C(F)(F)F)c3)cc2)ccn1 [Sorafenib, reference compound] | 5.22 |  |  |  |  |  |  |  |  |  |  |  | 
2 | CO[C@H]1C[C@@H]2CC[C@@H](C)[C@@](O)(O2)C(=O)C(=O)N2CCCC[C@H]2C(=O)O[C@H]([C@H](C)C[C@@H]2CC[C@@H](OCCO)[C@H](OC)C2)CC(=O)[C@H](C)/C=C(\C)[C@@H](O)[C@@H](OC)C(=O)[C@H](C)C[C@H](C)/C=C/C=C/C=C/1C [Everolimus, reference compound] |  | 50 | 62.5 | 5.52 | 40 | 50 |  |  |  |  |  |  | 
3 | Cc1ccc(N=Nc2c(N)nn3c2NC(=O)C(=NNc2ccc(S(=O)(=O)N=C(N)N)cc2)C3=O)cc1 [Compound 5, 4-(2-(2-Amino-5,7-Dioxo-3-(4-Tolyldiazenyl)-4,5-Dihydropyrazolo[1,5-a]Pyrimidin-6(7H)-Ylidene)Hydrazinyl)-N-(Diaminomethylene)Benzenesulfonamide] |  |  |  |  |  |  | no cytotoxic effects even at high doses | 278 to 280 |  |  |  |  | 
4 | Cc1ccc(N=Nc2c(N)nn3c(C)c(N=Nc4ccc(S(=O)(=O)N=C(N)N)cc4)c(=O)[nH]c23)cc1 [Compound 4a, 4-((2-Amino-7-methyl-5-oxo-3-(4-tolyldiazenyl)-4,5-dihydropyrazolo[1,5-a]pyrimidin-6-yl)diazenyl)-N-(diaminomethylene)benzenesulfonamide] |  |  |  |  |  |  | no cytotoxic effects even at high doses | 272 to 274 |  |  |  |  | 
5 | Cc1ccc(N=Nc2c(N)nn3c(N)c(N=Nc4cccc([N+](=O)[O-])c4)c(O)nc23)cc1 [Compound 2b, 2,7-diamino-6-((3-nitrophenyl)diazenyl)-3-(4-tolyldiazenyl)pyrazolo[1,5-a]pyrimidin-5-ol] |  |  |  |  |  |  | no cytotoxic effects even at high doses | 234 to 236 |  |  |  |  | 
6 | Cc1ccc(N=Nc2c(N)n[nH]c2N)cc1 [Compound 1, 4-(p-tolyldiazenyl)-1H-pyrazole-3,5-diamine] | 4.70 | 20 | 50 | 4.30 | 33.3 | 50 |  |  | 23 | 33.3 | 52.6 | 38.5 | pIC50 (A-549 cell line): 4.82; pIC50 (CaCo-2 cell line): 4.74; pIC50 [3]: 4.30 to 5.22
7 | CNC(=O)c1cc(Oc2ccc(NC(=O)Nc3ccc(Cl)c(C(F)(F)F)c3)c(F)c2)ccn1 [Regorafenib, reference compound] | 5.52 |  |  |  |  |  |  |  | 70.8 | 75.4 | 62 | 55.6 | 
8 | COc1ccc(-c2nc3c(N=Nc4ccc(C)cc4)c(N)nn3c(N)c2C#N)cc1 [Compound 6, 2,7-Diamino-5-(4-Methoxyphenyl)-3-(4-Tolyldiazenyl)Pyrazolo[1,5-a]Pyrimidine-6-Carbonitrile] |  |  |  |  |  |  | no cytotoxic effects even at high doses | 230 to 232 |  |  |  |  | 
9 | Cc1ccc(N=Nc2c(N)nn3c(C)c(N=Nc4cccc([N+](=O)[O-])c4)c(=O)[nH]c23)cc1 [Compound 4b, 2-Amino-7-methyl-6-((3-nitrophenyl)diazenyl)-3-(4-tolyldiazenyl)pyrazolo[1,5-a]pyrimidin-5(4H)-one] | 4.90 | 40 | 50 | 4.60 | 50 | 50 |  | 228 to 230 | 46 | 41.7 | 42 | 38.5 | VEGF gene expression level [6]: great inhibition; pIC50 (A-549 cell line): 4.85; pIC50 (CaCo-2 cell line): 4.81; pIC50 [3]: 4.30 to 5.22
10 | Cc1ccc(N=Nc2c(N)nn3c(C)c(N=Nc4cccc([N+](=O)[O-])c4)c(C)nc23)cc1 [Compound 3b, 5,7-Dimethyl-6-((3-nitrophenyl)diazenyl)-3-(4-tolyldiazenyl)pyrazolo[1,5-a]pyrimidin-2-amine] |  |  |  |  |  |  | no cytotoxic effects even at high doses | 256 to 258 |  |  |  |  | 
11 | Cc1ccc(N=Nc2c(N)nn3c(N)c(N=Nc4ccc(S(=O)(=O)N=C(N)N)cc4)c(N)nc23)cc1 [Compound 7, N-(Diaminomethylene)-4-((2,5,7-Triamino-3-(4-Tolyldiazenyl)Pyrazolo[1,5-a]Pyrimidin-6-yl)Diazenyl)Benzenesulfonamide] | 5.22 | 50 | 62.5 | 4.92 | 60 | 62.5 |  | 264 to 266 | 51.5 | 70.3 | 69.7 | 72.3 | VEGF gene expression level [6]: best VEGF gene expression level downregulation; pIC50 (A-549 cell line): 4.92; pIC50 (CaCo-2 cell line): 5.22; pIC50 (HepG2 cell line; TPGS-coated vs uncoated niosomes vs pure compound, read-out: IC50 Hepg2 Liver Carcinoma): 5.22; pIC50 [3]: 4.30 to 5.22
12 | Cc1ccc(N=Nc2c(N)nn3c(C)c(N=Nc4ccc(S(=O)(=O)N=C(N)N)cc4)c(C)nc23)cc1 [Compound 3a, 4-((2-Amino-5,7-dimethyl-3-(4-tolyldiazenyl)pyrazolo[1,5-a]pyrimidin-6-yl)diazenyl)-N-(diaminomethylene)benzenesulfonamide] |  |  |  |  |  |  | no cytotoxic effects even at high doses | 250 to 252 |  |  |  |  | 
